Biological target: T1, full-length human PKCι (Homo sapiens, UniProt P41743)
T1 construct: Recombinant, full-length human PKCι expressed in Sf21 insect cells is also commercially available; purchased EMD Millipore; host or cells: Sf21 insect cells (baculovirus)
T1 sequence (P41743 1-596): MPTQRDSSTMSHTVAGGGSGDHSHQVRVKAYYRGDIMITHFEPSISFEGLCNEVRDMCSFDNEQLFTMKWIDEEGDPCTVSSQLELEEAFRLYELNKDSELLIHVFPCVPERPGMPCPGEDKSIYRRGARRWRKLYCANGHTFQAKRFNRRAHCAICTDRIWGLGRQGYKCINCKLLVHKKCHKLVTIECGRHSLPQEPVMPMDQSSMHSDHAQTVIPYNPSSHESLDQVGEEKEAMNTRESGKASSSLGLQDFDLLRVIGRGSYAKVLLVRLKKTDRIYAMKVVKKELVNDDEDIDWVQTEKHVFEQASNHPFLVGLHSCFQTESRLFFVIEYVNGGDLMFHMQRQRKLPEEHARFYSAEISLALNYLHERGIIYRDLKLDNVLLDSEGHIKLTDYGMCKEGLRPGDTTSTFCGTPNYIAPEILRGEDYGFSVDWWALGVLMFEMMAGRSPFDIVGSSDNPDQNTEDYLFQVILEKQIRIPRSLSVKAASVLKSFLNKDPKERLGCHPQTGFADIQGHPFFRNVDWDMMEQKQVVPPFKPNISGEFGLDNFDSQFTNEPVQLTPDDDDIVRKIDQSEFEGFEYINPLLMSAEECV
Assay: PKCι IC50 IMAP fluorescence polarisation assay, full-length enzyme, 150 μM ATP
Assay type: biochemical
Conditions: read-out: IC50 in IMAP assay against full length PKCi at 150 μM ATP
Outline: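 IMAP fluorescence polarisation kinase assay: 15 pM baculovirus-expressed human PKCiota with 100 nM FAM-pseudosubstrate peptide and 150 μM ATP, 1 h at 25 °C. IMAP detection reagent then 2 h at 25 °C before FP measurement. Inhibition referenced to no-compound and no-enzyme controls for IC50 fitting.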

## CC1(C)CNCCC1Nc1nc(-c2ccnc(Nc3c(F)cccc3F)c2)nc2cncc(C3CCC3)c12 (stereo not shown) [Example 93, {5-Cyclobutyl-2-[2-(2,6-difluoro-phenylamino)-pyridin-4-yl]-pyrido[3,4-d]pyrimidin-4-yl}-(3,3-dimethyl-piperidin-4-yl)-amine]
  IC50: < 100 nM

## Cc1cc2c(-c3nc(N4CCCC5NCCCC54)c4c(C5CC5)cncc4n3)ccnc2[nH]1 (stereo not shown) [Example 94, 5-Cyclopropyl-2-(2-methyl-1H-pyrrolo[2,3-b]pyridin-4-yl)-4-(octahydro-[1,5]naphthyridin-1-yl)-pyrido[3,4-d]pyrimidine]
  IC50: < 100 nM

## Cc1cc2c(-c3nc(N4CCCC5NCCCC54)c4c(C5CCC5)cncc4n3)ccnc2[nH]1 (stereo not shown) [Example 95, 5-Cyclobutyl-2-(2-methyl-1H-pyrrolo[2,3-b]pyridin-4-yl)-4-(octahydro-[1,5]naphthyridin-1-yl)-pyrido[3,4-d]pyrimidine]
  IC50: < 100 nM

## CC1(C)CNCCC1Nc1nc(-c2ccnc(NCc3c(F)cccc3F)c2)nc2cncc(C3CCC3)c12 (stereo not shown) [Example 96, {5-Cyclobutyl-2-[2-(2,6-difluoro-benzylamino)-pyridin-4-yl]-pyrido[3,4-d]pyrimidin-4-yl}-(3,3-dimethyl-piperidin-4-yl)-amine]
  IC50: < 100 nM

## Fc1ccc(F)c(Nc2cc(-c3nc(N4CCC5NCCC54)c4c(C5CCC5)cncc4n3)ccn2)n1 (stereo not shown) [Example 97, {4-[5-Cyclobutyl-4-(hexahydro-pyrrolo [3,2-b]pyrrol-1-yl)-pyrido[3,4-d]pyrimidin-2-yl]-pyridin-2-yl}-(3,6-difluoro-pyridin-2-yl)-amine]
  IC50: < 100 nM

## Fc1cc(F)c(Nc2cc(-c3nc(N4CCC5NCCC54)c4c(C5CCC5)cncc4n3)ccn2)nc1F (stereo not shown) [Example 98, {4-[5-Cyclobutyl-4-(hexahydro-pyrrolo[3,2-b]pyrrol-1-yl)-pyrido[3,4-d]pyrimidin-2-yl]-pyridin-2-yl}-(3,5,6-trifluoro-pyridin-2-yl)-amine]
  IC50: < 100 nM

## CNC(=O)c1cc2c(-c3nc(N4CCC5CNCCC54)c4c(C5CC5)cncc4n3)ccnc2[nH]1 (stereo not shown) [Example 99, 4-[5-Cyclopropyl-4-(octahydro-pyrrolo[3,2-c]pyridin-1-yl)-pyrido[3,4-d]pyrimidin-2-yl]-1H-pyrrolo[2,3-b]pyridine-2-carboxylic acid methylamide]
  IC50: < 100 nM

## Cc1cc2c(-c3nc(NC4CCNCC4(C)C)c4c(C5CC5)cncc4n3)ccnc2[nH]1 (stereo not shown) [Example 100, [5-Cyclopropyl-2-(2-methyl-1H-pyrrolo[2,3-b]pyridin-4-yl)-pyrido[3,4-d]pyrimidin-4-yl]-(3,3-dimethyl-piperidin-4-yl)-amine]
  IC50: < 100 nM

## Cc1cc2c(-c3nc(NC4CCNCC4(C)C)c4c(C5CCC5)cncc4n3)ccnc2[nH]1 (stereo not shown) [Example 101, [5-Cyclobutyl-2-(2-methyl-1H-pyrrolo[2,3-b]pyridin-4-yl)-pyrido[3,4-d]pyrimidin-4-yl]-(3,3-dimethyl-piperidin-4-yl)-amine]
  IC50: < 100 nM

## c1ccc(Nc2cc(-c3nc(N4CCC5NCCC54)c4c(C5CCC5)cncc4n3)ccn2)cc1 (stereo not shown) [Example 102, {4-[5-Cyclobutyl-4-(hexahydro-pyrrolo[3,2-b]pyrrol-1-yl)-pyrido[3,4-d]pyrimidin-2-yl]-pyndin-2-yl}-phenyl-amine]
  IC50: < 100 nM

## Clc1ccc(Cl)c(-c2cc3c(-c4nc(N5CCC6NCCC65)c5c(C6CC6)cncc5n4)ccnc3[nH]2)c1 (stereo not shown) [Example 103, 5-Cyclopropyl-2-[2-(2,5-dichloro-phenyl)-1H-pyrrolo[2,3-b]pyridin-4-yl]-4-(hexahydro-pyrrolo[3,2-b]pyrrol-1-yl)-pyrido[3,4-d]pyrimidine]
  IC50: < 100 nM

## CC1(C)CNCCC1Nc1nc(-c2ccnc(Nc3cc(F)cc(F)n3)c2)nc2cncc(C3CCC3)c12 (stereo not shown) [Example 105, {5-Cyclobutyl-2-[2-(4,6-difluoro-pyridin-2-ylamino)-pyridin-4-yl]-pyrido[3,4-d]pyrimidin-4-yl}-(3,3-dimethyl-piperidin-4-yl)-amine]
  IC50: 100 to 1000 nM

## CN(c1nc(-c2ccnc(Nc3nc(F)c(F)cc3F)c2)nc2cncc(C3CCC3)c12)C1CCNCC1(C)C (stereo not shown) [Example 106, {5-Cyclobutyl-2-[2-(3,5,6-trifluoro-pyridin-2-ylamino)-pyridin-4-yl]-pyrido[3,4-d]pyrimidin-4-yl}-(3,3-dimethyl-piperidin-4-yl)-methyl-amine]
  IC50: < 100 nM

## CC1(C)CNCCC1Nc1nc(-c2ccnc(Nc3cc(C#N)ccn3)c2)nc2cncc(C3CCC3)c12 (stereo not shown) [Example 107, 2-{4-[5-Cyclobutyl-4-(3,3-dimethyl-piperidin-4-ylamino)-pyrido[3,4-d]pyrimidin-2-yl]-pyridin-2-ylamino}-isonicotinonitrile]
  IC50: < 100 nM

## Fc1cc(F)c(Nc2cc(-c3nc(N[C@H]4[C@@H]5CNC[C@@H]54)c4c(C5CCC5)cncc4n3)ccn2)nc1F [Example 108, (1S,6S)-3-Aza-bicyclo[3.1.0]hex-6-yl-{(R)-5-cyclobutyl-2-[2-(3,5,6-trifluoro-pyridin-2-ylamino)-pyridin-4-yl]-pyrido[3,4-d]pyrimidin-4-yl}-amine]
  IC50: < 100 nM

## Fc1ccc(F)c(Nc2cc(-c3nc(N[C@H]4[C@@H]5CNC[C@@H]54)c4c(C5CCC5)cncc4n3)ccn2)n1 [Example 109, (1S,6S)-3-Aza-bicyclo[3.1.0]hex-6-yl-{(R)-5-cyclobutyl-2-[2-(3,6-difluoro-pyridin-2-ylamino)-pyridin-4-yl]-pyrido[3,4-d]pyrimidin-4-yl}-amine]
  IC50: < 100 nM

## CN(c1nc(-c2ccnc(Nc3ccccc3)c2)nc2cncc(C3CCC3)c12)C1CCNCC1(C)C (stereo not shown) [Example 110, [5-Cyclobutyl-2-(2-phenylamino-pyridin-4-yl)-pyrido[3,4-d]pyrimidin-4-yl]-(3,3-dimethyl-piperidin-4-yl)-methyl-amine]
  IC50: < 100 nM

## c1ccc(Nc2cc(-c3nc(N[C@H]4[C@@H]5CNC[C@@H]54)c4c(C5CCC5)cncc4n3)ccn2)cc1 [Example 111, (1S,6S)-3-Aza-bicyclo[3.1.0]hex-6-yl-[(R)-5-cyclobutyl-2-(2-phenylamino-pyridin-4-yl)-pyrido[3,4-d]pyrimidin-4-yl]-amine]
  IC50: < 100 nM

## COc1nc(-c2cc3c(-c4nc(N5CCNCC5)c5c(C6CC6)cncc5n4)ccnc3[nH]2)cs1 [Example 112, 5-Cyclopropyl-2-[2-(2-methoxy-thiazol-4-yl)-1H-pyrrolo[2,3-b]pyridin-4-yl]-4-piperazin-1-yl-pyrido[3,4-d] pyrimidine]
  IC50: < 100 nM

## Cc1cc2c(-c3nc(N(C)C4CCNCC4(C)C)c4c(C5CC5)cncc4n3)ccnc2[nH]1 (stereo not shown) [Example 115, [5-Cyclopropyl-2-(2-methyl-1H-pyrrolo[2,3-b]pyridin-4-yl)-pyrido [3,4-d]pyrimidin-4-yl]-(3,3-dimethyl-piperidin-4-yl)-methyl-amine]
  IC50: < 100 nM

## Cc1cc2c(-c3nc(N(C)C4CCNCC4(C)C)c4c(C5CCC5)cncc4n3)ccnc2[nH]1 (stereo not shown) [Example 116, [5-Cyclobutyl-2-(2-methyl-1H-pyrrolo[2,3-b]pyridin-4-yl)-pyrido[3,4-d]pyrimidin-4-yl]-(3,3-dimethyl-piperidin-4-yl)-methyl-amine]
  IC50: < 100 nM

## COc1nc(-c2cc3c(-c4nc(N5CCC6CNCCC65)c5c(C6CC6)cncc5n4)ccnc3[nH]2)cs1 (stereo not shown) [Example 118, 5-Cyclopropyl-2-[2-(2-methoxy-thiazol-4-yl)-1H-pyrrolo[2,3-b]pyridin-4-yl]-4-(octahydro-pyrrolo[3,2-c]pyridin-1-yl)-pyrido[3,4-d]pyrimidine]
  IC50: < 100 nM
